The numbers were not newly measured in PMC6237330, “Bioactivity of selected materials for coffee substitute” (PLoS ONE, 2018), which cites them from elsewhere.

Molecules are shown by their SMILES.

One data set concerns animals. Set-up: method as in earlier work. The settings on record: in the laboratory.
A further data set has as its system mice. Further details: method as in PMID 20237914. The settings on record: 2 mg furan/kg bwt.

For `C=CC(N)=O` [ACR, acrylamide], the Tumors in animals result with animals is given as “causes tumors in animals”. For `c1ccoc1` [furan], the Tumor induction result in the data set with mice is “may induce tumor”.
